According to US20100267561A1, “HERBICIDAL PYRIDAZINONE DERIVATIVES” (priority 2007, published 2010):

Key:
Assay in all cases: Test B pre-/postemergence plant response
Type in all cases: in vivo
[1] = system: soybean (Glycine max); conditions: Preemergence; for Soybean plant response rating: 8 g ai/ha
Procedure, shortened: (§1)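 Seeds were sown and sprayed preemergence, while plants at 2 to 18 cm (1- to 4-leaf stage) got postemergence sprays. Compounds were formulated in a non-phytotoxic solvent mixture with surfactant. After 13 to 15 days in a greenhouse, injury was rated visually against untreated controls, 0 (no effect) to 100 (complete control).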

[2] = system: johnsongrass (Sorghum halepense); conditions: Preemergence
Procedure, shortened: as §1

[3] = system: morningglory (Ipomoea coccinea); conditions: Preemergence; for Morningglory plant response rating: 8 g ai/ha
Procedure, shortened: as §1

[4] = system: eastern black (E.B.) nightshade (Solanum ptycanthum); conditions: Preemergence; for Nightshade, E. B. plant response rating: 8 g ai/ha
Procedure, shortened: as §1

[5] = system: Russian thistle (Salsola iberica); conditions: Preemergence; for Russian Thistle plant response rating: 8 g ai/ha
Procedure, shortened: as §1

[6] = system: wheat (Triticum aestivum); conditions: Preemergence; for Wheat plant response rating: 8 g ai/ha, scale 0 to 100
Procedure, shortened: as §1

[7] = system: green foxtail (Setaria viridis); conditions: Preemergence; for Foxtail, Green plant response rating: 8 g ai/ha
Procedure, shortened: as §1

[8] = system: bermudagrass (Cynodon dactylon); conditions: Preemergence; for Bermudagrass plant response rating: 8 g ai/ha
Procedure, shortened: as §1

[9] = system: Italian ryegrass (Lolium multiflorum); conditions: Preemergence; for Ryegrass, Italian plant response rating: 8 g ai/ha
Procedure, shortened: as §1

[10] = system: surinam grass (Brachiaria decumbens); conditions: Preemergence; for Surinam Grass plant response rating: 8 g ai/ha, scale 0 to 100
Procedure, shortened: as §1

[11] = system: cocklebur (Xanthium strumarium); conditions: Preemergence; for Cocklebur plant response rating: 8 g ai/ha
Procedure, shortened: as §1

[12] = system: large crabgrass (Digitaria sanguinalis); conditions: Preemergence; for Crabgrass, Large plant response rating: 8 g ai/ha
Procedure, shortened: as §1

[13] = system: goosegrass (Eleusine indica); conditions: Preemergence; for Goosegrass plant response rating: 8 g ai/ha
Procedure, shortened: as §1

[14] = 16 g ai/ha, scale 0 to 100 (0 no effect, 100 complete control)
[15] = 31 g ai/ha, scale 0 to 100 (0 no effect, 100 complete control)
[16] = 31 g ai/ha, 0 to 100 scale, 0 no effect, 100 complete control
[17] = 62 g ai/ha, 0 to 100 scale, 0 no effect, 100 complete control
[18] = scale 0 to 100 (0 no effect, 100 complete control)

SMILES: Cc1cc(-c2ccc(Cl)cc2)nn1-c1c(OS(=O)(=O)C(C)C)cnn(C)c1=O [Compound 50]
- Plant response rating, Soybean [1, 14]: 50
- Plant response rating, Soybean [1, 15]: 100
- Plant response rating, Soybean ([1]; 62 g ai/ha, scale 0 to 100): 100
- Soybean plant response rating ([1]; scale 0 to 100): 0
- Plant response rating, Johnsongrass [2, 14]: 95
- Plant response rating, Johnsongrass [2, 16]: 98
- Plant response rating, Johnsongrass ([2]; 62 g ai/ha, scale 0 to 100): 100
- Johnsongrass plant response rating ([2]; 8 g ai/ha, scale 0 to 100): 70
- Plant response rating, Morningglory [3, 14]: 0
- Plant response rating, Morningglory [3, 15]: 0
- Plant response rating, Morningglory ([3]; 62 g ai/ha, scale 0 to 100): 30
- Morningglory plant response rating ([3]; scale 0 to 100): 0
- Plant response rating, Nightshade, E. B. [4, 14]: 0
- Plant response rating, Nightshade, E. B. [4, 15]: 100
- Plant response rating, Nightshade, E. B. ([4]; 62 g ai/ha, scale 0 to 100): 100
- Nightshade, E. B. plant response rating ([4]; scale 0 to 100): 0
- Plant response rating, Russian Thistle [5, 14]: 0
- Plant response rating, Russian Thistle [5, 15]: 0
- Plant response rating, Russian Thistle ([5]; 62 g ai/ha, scale 0 to 100): 0
- Russian Thistle plant response rating ([5]; scale 0 to 100): 0
- Plant response rating, Wheat [6, 14]: 0
- Plant response rating, Wheat [6, 15]: 0
- Plant response rating, Wheat [6, 17]: 0
- Wheat plant response rating [6]: 0
- Plant response rating, Foxtail, Green [7, 14]: 95
- Plant response rating, Foxtail, Green [7, 16]: 98
- Plant response rating, Foxtail, Green ([7]; 62 g ai/ha, scale 0 to 100): 100
- Foxtail, Green plant response rating ([7]; scale 0 to 100): 0
- Bermudagrass plant response rating [8, 18]: 90
- Plant response rating, Bermudagrass [8, 14]: 100
- Plant response rating, Bermudagrass [8, 16]: 100
- Plant response rating, Bermudagrass ([8]; 62 g ai/ha, scale 0 to 100): 100
- Plant response rating, Ryegrass, Italian [9, 14]: 0
- Plant response rating, Ryegrass, Italian [9, 15]: 5
- Plant response rating, Ryegrass, Italian ([9]; 62 g ai/ha, scale 0 to 100): 100
- Ryegrass, Italian plant response rating ([9]; scale 0 to 100): 0
- Plant response rating, Surinam Grass [10, 14]: 40
- Plant response rating, Surinam Grass [10, 15]: 90
- Plant response rating, Surinam Grass [10, 17]: 98
- Surinam Grass plant response rating [10]: 20
- Plant response rating, Cocklebur [11, 14]: 0
- Plant response rating, Cocklebur [11, 16]: 0
- Plant response rating, Cocklebur ([11]; 62 g ai/ha, scale 0 to 100): 0
- Cocklebur plant response rating ([11]; scale 0 to 100): 0
- Plant response rating, Crabgrass, Large [12, 14]: 98
- Plant response rating, Crabgrass, Large [12, 16]: 100
- Plant response rating, Crabgrass, Large ([12]; 62 g ai/ha, scale 0 to 100): 100
- Crabgrass, Large plant response rating ([12]; scale 0 to 100): 60
- Plant response rating, Goosegrass [13, 14]: 80
- Plant response rating, Goosegrass [13, 16]: 98
- Plant response rating, Goosegrass ([13]; 62 g ai/ha, scale 0 to 100): 100
- Goosegrass plant response rating ([13]; scale 0 to 100): 0

SMILES: Cc1ccc(-c2ccc(Cl)cc2)cc1-c1c(O)cnn(C)c1=O [Compound 46]
- Plant response rating, Soybean [1, 14]: 0
- Plant response rating, Soybean [1, 15]: 0
- Plant response rating, Soybean ([1]; 62 g ai/ha, scale 0 to 100): 0
- Soybean plant response rating ([1]; scale 0 to 100): 0
- Plant response rating, Johnsongrass [2, 14]: 55
- Plant response rating, Johnsongrass [2, 16]: 85
- Plant response rating, Johnsongrass ([2]; 62 g ai/ha, scale 0 to 100): 90
- Plant response rating, Morningglory [3, 14]: 0
- Plant response rating, Morningglory [3, 15]: 0
- Plant response rating, Morningglory ([3]; 62 g ai/ha, scale 0 to 100): 0
- Morningglory plant response rating ([3]; scale 0 to 100): 0
- Plant response rating, Nightshade, E. B. [4, 14]: 0
- Plant response rating, Nightshade, E. B. [4, 15]: 20
- Plant response rating, Nightshade, E. B. ([4]; 62 g ai/ha, scale 0 to 100): 100
- Nightshade, E. B. plant response rating ([4]; scale 0 to 100): 0
- Plant response rating, Russian Thistle [5, 14]: 0
- Plant response rating, Russian Thistle [5, 15]: 0
- Plant response rating, Russian Thistle ([5]; 62 g ai/ha, scale 0 to 100): 0
- Russian Thistle plant response rating ([5]; scale 0 to 100): 0
- Plant response rating, Wheat [6, 14]: 0
- Plant response rating, Wheat [6, 15]: 0
- Plant response rating, Wheat [6, 17]: 0
- Wheat plant response rating [6]: 0
- Plant response rating, Foxtail, Green [7, 14]: 10
- Plant response rating, Foxtail, Green [7, 16]: 80
- Plant response rating, Foxtail, Green ([7]; 62 g ai/ha, scale 0 to 100): 100
- Foxtail, Green plant response rating ([7]; scale 0 to 100): 0
- Bermudagrass plant response rating [8, 18]: 0
- Plant response rating, Bermudagrass [8, 14]: 20
- Plant response rating, Bermudagrass [8, 16]: 85
- Plant response rating, Bermudagrass ([8]; 62 g ai/ha, scale 0 to 100): 100
- Plant response rating, Ryegrass, Italian [9, 14]: 10
- Plant response rating, Ryegrass, Italian [9, 15]: 40
- Plant response rating, Ryegrass, Italian ([9]; 62 g ai/ha, scale 0 to 100): 100
- Ryegrass, Italian plant response rating ([9]; scale 0 to 100): 0
- Plant response rating, Surinam Grass [10, 14]: 0
- Plant response rating, Surinam Grass [10, 15]: 0
- Plant response rating, Surinam Grass [10, 17]: 0
- Surinam Grass plant response rating [10]: 0
- Plant response rating, Cocklebur [11, 14]: 0
- Plant response rating, Cocklebur [11, 16]: 0
- Plant response rating, Cocklebur ([11]; 62 g ai/ha, scale 0 to 100): 0
- Cocklebur plant response rating ([11]; scale 0 to 100): 0
- Plant response rating, Crabgrass, Large [12, 14]: 0
- Plant response rating, Crabgrass, Large [12, 16]: 60
- Plant response rating, Crabgrass, Large ([12]; 62 g ai/ha, scale 0 to 100): 100
- Crabgrass, Large plant response rating ([12]; scale 0 to 100): 0
- Plant response rating, Goosegrass [13, 14]: 100
- Plant response rating, Goosegrass [13, 16]: 100
- Plant response rating, Goosegrass ([13]; 62 g ai/ha, scale 0 to 100): 100
- Goosegrass plant response rating ([13]; scale 0 to 100): 0
